According to patent US20100137313A1 (ASTRAZENECA AB, priority 2008, published 2010):

molecular target: S. pneumoniae Topoisomerase IV ATPase (ParE) (Streptococcus pneumoniae serotype 4, UniProt Q59961); experiment: S. pneumoniae Topoisomerase IV ATPase inhibition; assay type: biochemical; conditions: values marked * are an average of two or more data points
Outline: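 S. pneumoniae ParE (1.25 nM) ATPase with 160 μM ATP and 5 μg/ml sheared DNA in pH 8.0 Tris, Mg2+, DTT, Brij-35; phosphate detected by malachite green/molybdate at 650 nm. Normalised to 2% DMSO (0%) and 20 μM EDTA (100%); IC50 from 10 concentrations.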

S. pneumoniae Topoisomerase IV ATPase (ParE), sequence (Q59961 whole entry): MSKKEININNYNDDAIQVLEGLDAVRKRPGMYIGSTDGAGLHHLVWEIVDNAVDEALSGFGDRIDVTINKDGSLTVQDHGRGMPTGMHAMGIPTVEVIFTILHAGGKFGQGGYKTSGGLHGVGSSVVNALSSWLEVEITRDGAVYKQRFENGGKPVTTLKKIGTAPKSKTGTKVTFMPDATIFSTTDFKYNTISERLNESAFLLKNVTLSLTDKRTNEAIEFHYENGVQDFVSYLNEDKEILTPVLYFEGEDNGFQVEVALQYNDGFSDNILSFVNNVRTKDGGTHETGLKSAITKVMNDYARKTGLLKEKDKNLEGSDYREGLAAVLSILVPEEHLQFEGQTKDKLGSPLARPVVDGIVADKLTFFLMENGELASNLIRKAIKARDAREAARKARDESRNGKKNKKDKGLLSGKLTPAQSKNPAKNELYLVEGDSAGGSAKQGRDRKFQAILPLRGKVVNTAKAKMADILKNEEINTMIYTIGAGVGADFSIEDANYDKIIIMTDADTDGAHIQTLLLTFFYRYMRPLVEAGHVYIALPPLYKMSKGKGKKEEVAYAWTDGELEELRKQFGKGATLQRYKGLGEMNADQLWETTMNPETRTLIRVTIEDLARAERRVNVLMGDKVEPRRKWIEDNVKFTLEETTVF

Structure (SMILES) | % Inh (13 μM) of S. pneumoniae Topoisomerase IV ATPase
O=C(O)[C@H]1C[C@H]1c1cccc(-c2cnc(Nc3ccc(F)c(Cl)c3)nc2-n2ccc(C(F)(F)F)n2)c1 [Example 576, (1S,2R)-2-(3-(2-(3-chloro-4-fluorophenvlamino)-4-(3-(trifluoromethyl)-1H-pyrazol-1-yl)pyrimidin-5-yl)phenyl)cyclopropanecarboxylic acid] | 100%

same assay, conditions: values marked * are an average of two or more data points, read-out: % Inh (13 μM) of S. pneumoniae Topoisomerase IV ATPase

Structure (SMILES) | inhibition at 13 µM
CCS(=O)(=O)NC(=O)c1cc(-c2cnc(Nc3cc(C)cc(C)c3)nc2-n2ccc(C(F)(F)F)n2)cnc1OC [Example 822, 5-{2-[(3,5-dimethylphenyl)amino]-4-[3-(trifluoromethyl)-1H-pyrazol-1-yl]pyrimidin-5-yl}-N-(ethylsulfonyl)-2-methoxypyridine-3-carboxamide] | 100%
CCn1cc(-c2cnc(Nc3cc(OC)cc(OC)c3)nc2-n2nc(C(F)(F)F)cc2C)cc(C(=O)O)c1=O [Example 919, 5-(2-(3,5-dimethoxyphenylamino)-4-(5-methyl-3-(trifluoromethyl)-1H-pyrazol-1-yl)pyrimidin-5-yl)-1-ethyl-2-oxo-1,2-dihydropyridine-3-carboxylic acid] | 99%
Cc1cc(C(F)(F)F)nn1-c1nc(Nc2ccc(F)c(Cl)c2)ncc1-c1cc(C(=O)O)c(=O)n(C)c1 [Example 1088, 5-(2-(3-chloro-4-fluorophenylamino)-4-(5-methyl-3-(trifluoromethyl)-1H-pyrazol-1-yl)pyrimidin-5-yl)-1-methyl-2-oxo-1,2-dihydrpyridine-3-carboxylic acid] | 100%
COc1c(F)cc(Nc2ncc(-c3cccc(/C=C/C(=O)O)c3)c(N3CCOCC3)n2)cc1F [Example 403, (E)-3-{3-[2-(3,5-Difluoro-4-methoxy-phenylamino)-4-morpholin-4-yl-pyrimidin-5-yl]-phenyl}-acrylic acid] | 30%
O=C(O)/C=C/c1cccc(-c2cnc(Nc3ccc(F)c(Cl)c3)nc2NCCc2c[nH]cn2)c1 [Example 264, (2E)-3-[3-(2-[(3-chloro-4-fluorophenyl)amino]-4-{[2-(1H-imidazol-4-yl)ethyl]amino}pyrimidin-5-yl)phenyl]prop-2-enoic acid] | 87.8%
Cc1cc(C(F)(F)F)nn1-c1nc(Nc2ccc(F)c(Cl)c2)ncc1-c1cc(C(=O)O)c(=O)n(CCN2CCOCC2)c1 [Example 1076, 5-(2-(3-Chloro-4-fluorophenylamino)-4-(5-methyl-3-(trifluoromethyl)-1H-pyrazol-1-yl)pyrimidin-5-yl)-1-(2-morpholinoethyl)-2-oxo-1,2-dihydrpyridine-3-carboxylic acid] | 99%
Fc1ccc(Nc2ncc(-c3cncnc3)c(-n3cnc(C(F)(F)F)c3)n2)cc1Cl [Example 84, N-(3-chloro-4-fluorophenyl)-4-[4-(trifluoromethyl)-1H-imidazol-1-yl]-5,5′-bipyrimidin-2-amine] | 79.6%
COc1cc(C)cc(Nc2ncc(-c3cc(C(=O)O)c(=O)n(C)c3)c(-n3nc(C(F)(F)F)cc3C)n2)c1 [Example 861, 5-{2-[(3-methoxy-5-methylphenyl)amino]-4-[5-methyl-3-(trifluoromethyl)-1H-pyrazol-1-yl]pyrimidin-5-yl}-1-methyl-2-oxo-1,2-dihydropyridine-3-carboxylic acid] | 100%
Cc1cc(C#N)cc(Nc2ncc(-c3cncc(C(=O)O)c3)c(-n3nc(C(F)(F)F)cc3C)n2)c1 [Example 785, 5-{2-[(3-cyano-5-methylphenyl)amino]-4-[5-methyl-3-(trifluoromethyl)-1H-pyrazol-1-yl]pyrimidin-5-yl}pyridine-3-carboxylic acid] | 100%
COc1ncc(C(=O)O)cc1-c1cnc(Nc2cc(C)cc(C)c2)nc1-n1nc(C(F)(F)F)cc1C [Example 1142, 5-(2-(3,5-dimethylphenylamino)-4-(5-methyl-3-(trifluoromethyl)-1H-pyrazol-1-yl)pyrimidin-5-yl)-6-methoxynicotinic acid] | 100%
CONC(=O)c1cncc(-c2cnc(Nc3ccc(F)c(Cl)c3)nc2-n2nc(C(F)F)cc2C(F)F)c1 [Example 547, 5-{4-[3,5-bis(difluoromethyl)-1H-pyrazol-1-yl]-2-[(3-chloro-4-fluorophenyl)amino]pyrimidin-5-yl}-N-methoxypyridine-3-carboxamide] | 71%
O=C(O)/C=C/c1cccc(-c2cnc(Nc3ccc(F)c(Cl)c3)nc2N2CCCC2)c1 [Example 294, (E)-3-(3-(2-(3-chloro-4-fluorophenylamino)-4-(pyrrolidin-1-yl)pyrimidin-5-yl)phenyl)acrylic acid] | 73.2%
COc1ncc(-c2cnc(Nc3cccc(Cl)c3)nc2-n2nc(C(F)(F)F)cc2C)cc1C(=O)O [Example 743, 5-{2-[(3-chlorophenyl)amino]-4-[5-methyl-3-(trifluoromethyl)-1H-pyrazol-1-yl]pyrimidin-5-yl}-2-methoxypyridine-3-carboxylic acid] | 94%
CN(C)CCCNc1nc(Nc2ccc(F)c(Cl)c2)ncc1-c1ccc2cc[nH]c2c1 [Example 4, N^2-(3-chloro-4-fluorophenyl)-N^4-(3-(dimethylamino)propyl)-5-(1H-indol-6-yl)pyrimidine-2,4-diamine] | 93.1%
CC1CN(c2nc(Nc3ccc(F)c(Cl)c3)ncc2-c2cncc(C(=O)O)c2)CC(C)O1 (centres unmarked) [Example 272, 5-(2-(3-chloro-4-fluorophenylamino)-4-(2,6-dimethylmorpholino)-pyrimidin-5-yl)nicotinic acid] | 81.1%
O=C(O)c1cncc(-c2cnc(Nc3ccc(F)c(Cl)c3)nc2-n2nnc3ccccc32)c1 [Example 318, 5-{4-(1H-benzotriazol-1-yl)-2-[(3-chloro-4-fluorophenyl)amino]pyrimidin-5-yl}pyridine-3-carboxylic acid] | 92.3%
CCC(C)Nc1nc(Nc2ccc(F)c(Cl)c2)ncc1-c1cc2ccccc2o1 (centres unmarked) [Example 1108, 5-(1-benzofuran-2-yl)-N′-butan-2-yl-N-(3-chloro-4-fluorophenyl)pyrimidine-2,4-diamine] | 18%
O=C(O)C(=O)Nc1cccc(-c2cnc(Nc3ccc(F)c(Cl)c3)nc2-n2ccc(C(F)(F)F)n2)c1 [Example 1072, 2-(3-(2-(3-Chloro-4-fluorophenylamino)-4-(3-(trifluoromethyl)-1H-pyrazol-1-yl)pyrimidin-5-yl)phenylamino)-2-oxoacetic acid] | 95%
O=C(O)c1cc(-c2cnc(Nc3ccc(F)c(Cl)c3)nc2-n2ccc(C(F)(F)F)n2)cnc1NCCN1CCOCC1 [Example 1077, 5-(2-(3-Chloro-4-fluorophenylamino)-4-(3-(trifluoromthyl)-1H-pyrazol-1-yl)pyrimidin-5-yl)-2-(2-morpholinoethylamino)nicotinic acid] | 99%
COc1cc(Nc2ncc(-c3cccc(/C=C/C(=O)O)c3)c(-n3ccc(C(F)(F)F)n3)n2)cc(OC)c1 [Example 615, (2E)-3-(3-{2-[(3,5-dimethoxyphenyl)amino]-4-[3-(trifluoromethyl)-1H-pyrazol-1-yl]pyrimidin-5-yl}phenyl)prop-2-enoic acid] | 100%
COc1ncc(-c2cnc(Nc3cc(C)cc(Cl)c3)nc2-n2ccc(C(F)(F)F)n2)cc1C(=O)O [Example 799, 5-{2-[(3-chloro-5-methylphenyl)amino]-4-[3-(trifluoromethyl)-1H-pyrazol-1-yl]pyrimidin-5-yl}-2-methoxypyridine-3-carboxylic acid] | 100%
Cc1cc(-c2nccs2)nn1-c1nc(Nc2ccc(F)c(Cl)c2)ncc1-c1cccc(/C=C/C(=O)O)c1 [Example 562, (2E)-3-(3-{2-[(3-chloro-4-fluorophenyl)amino]-4-[5-methyl-3-(1,3-thiazol-2-yl)-1H-pyrazol-1-yl]pyrimidin-5-yl}phenyl)prop-2-enoic acid] | 100%
CCNC(=O)NS(=O)(=O)c1cccc(-c2cnc(Nc3ccc(F)c(Cl)c3)nc2-n2ccc(C(F)(F)F)n2)c1 [Example 998, 3-(2-(3-Chloro-4-fluorophenylamino)-4-(3-(trifluoromethyl)-1H-pyrazol-1-yl)pyrimidin-5-yl)-N-(ethylcarbamoyl)benzenesulfonamide] | 100%
COc1cc(Nc2ncc(-c3cnc(OC)c(C(=O)O)c3)c(-n3ccc(C(F)(F)F)n3)n2)cc(OC)c1 [Example 675, 5-{2-[(3,5-dimethoxyphenyl)amino]-4-[3-(trifluoromethyl)-1H-pyrazol-1-yl]pyrimidin-5-yl}-2-methoxypyridine-3-carboxylic acid] | 100%
CC(C)Nc1nc(Nc2ccc(F)c(Cl)c2)ncc1-c1cncnc1 [Example 59, N^2-(3-chloro-4-fluorophenyl)-N^4-propan-2-yl-5-pyrimidin-5-ylpyrimidine-2,4-diamine] | 51.8%
CC1(C)[C@@H](C(=O)O)[C@@H]1c1cccc(-c2cnc(Nc3ccc(F)cc3)nc2-n2ccc(C(F)(F)F)n2)c1 [Example 571, (1,3-trans)-3-(3-(2-(4-fluorophenylamino)-4-(3-(trifluoromethyl)-1H-pyrazol-1-yl)pyrimidin-5-yl)phenyl)-2,2-dimethylcyclopropanecarboxylic acid] | 17%
CCOC(=O)c1cncc(-c2cnc(Nc3ccc(F)c(Cl)c3)nc2N2CC(C)OC(C)C2)c1 (centres unmarked) [Example 139, ethyl 5-(2-(3-chloro-4-fluorophenylamino)-4-(2,6-dimethylmorpholino)pyrimidin-5-yl)nicotinate] | 80.1%
COc1cc(F)cc(Nc2ncc(-c3cnc(OC)c(C(=O)NS(C)(=O)=O)c3)c(-n3ccc(C(F)(F)F)n3)n2)c1 [Example 897, 5-(2-(3-fluoro-5-methoxyphenylamino)-4-(3-(trifluoromethyl)-1H-pyrazol-1-yl)pyrimidin-5-yl)-2-methoxy-N-(methylsulfonyl)nicotinamide] | 100%
